Reference: patent US20240041889A1, “COMBINATION THERAPY WITH ADENOSINE RECEPTOR ANTAGONISTS” (Teon Therapeutics, Inc., priority 2020, published 2024)

Experiments:
MC38 tumor model = test: Fibrosis in a MC38 tumor model; format: in vivo
CT26 tumor = test: Combination with anti-PD-1 in a CT26 model; format: in vivo, Balb/C mice; conditions: intraperitoneally for 16 days
Protocol: Methods: Balb/C inbred female mice, aged at 8-9 week, were purchased from Charles River. On the day of inoculation (Day 0), CT26 cells were harvested, washed and counted. Cells were re-suspended as single cell solution in PBS at a concentration of 5×10^6 cells/mL at the final step. Immediately, five hundred thousand (5×10^5) of CT26 cells suspended in 0.1 mL PBS were injected in the right flank of Balb/C mice subcutaneously using 27G needles. When palpable, tumors were measured by a caliper and tumor volume (mm^3) were calculated by length×width×height×0.5236. Mice with the tumor size approximate to 100 mm^3 were randomly assigned into one of four groups (n=10). Each group received vehicle (BID), A2B antagonist Compound 1 at 3 mg/kg (BID), mouse anti-PD-1 (RMP1-14) at 5 mg/kg (Q2D), or Compound 1 (3 mg/kg)+RMP1-14 (5 mg/kg) intraperitoneally for 16 days. Tumor size and body weight were determined every 2-3 days.

B16F10 tumor = test: Combination with anti-PD-1 in a B16F10 model; format: in vivo, C57BL/6 mice; conditions: intraperitoneally for 7 days
Protocol: Methods: C57BL/6 inbred female mice, aged at 8-9 week, were purchased from Charles River. On the day of inoculation (Day 0), B16F10 cells were harvested, washed and counted. Cells were re-suspended as single cell solution in PBS at a concentration of 5×10^6 cells/mL at the final step. Immediately, five hundred thousand (5×10^5) of B16F10 cells suspended in 0.1 mL PBS were injected in the right flank of C57BL/6 mice subcutaneously using 27G needles. When palpable, tumors were measured by a caliper and tumor volumes (mm^3) were calculated by length×width×height×0.5236. Mice with the tumor size approximate to 100 mm^3 were randomly assigned into one of four groups (n=10). Each group received vehicle (BID), A2B antagonist Compound 1 at 1 mg/kg (BID), mouse anti-PD-1 (RMP1-14) at 10 mg/kg (Q3D), or Compound 1 (1 mg/kg)+RMP1-14 (10 mg/kg) intraperitoneally for 7 days. Tumor size and body weight were determined every 2-3 days.

[1] = system: tumor-infiltrating immune cells; test: Mechanistic study in a MC38 model, FACS analysis of tumor tissue; format: in vivo, C57BL/6 mice; conditions: 6 days after drug treatment
Protocol: Methods: C57BL/6 inbred female mice, aged at 6-8 week, were purchased from Shanghai Lingchang Biotechnology Co., Ltd. On the day of inoculation (Day 0), MC38 cells were harvested, washed and counted. Cells were re-suspended as single cell solution in PBS at a concentration of 1×10^6 cells/mL at the final step. Immediately, […] (1×10^5) of MC38 cells suspended in 0.1 mL PBS were injected in the right flank of C57BL/6 mice subcutaneously using 27G needles. When palpable, tumors were measured by a caliper and tumor volume (mm^3) were calculated by length×width×height×0.5236. Mice with the tumor size approximately to 80-100 mm^3 were randomly assigned into one of four groups (n=8). Each group received vehicle (BID), A2B antagonist Compound 1 at 3 mg/kg (BID), mouse anti-PD-1 (RMP1-14) at 10 mg/kg (Q3D), or Compound 1 (3 mg/kg)+RMP1-14 (10 mg/kg) intraperitoneally. Tumor tissues were collected 6 days after drug treatment and made single cell suspension for FACS analysis to detect tumor-infiltrating immune cells.

In the case of `CCCn1c(=O)c2[nH]c(-c3cnn(Cc4cccc(C(F)(F)F)c4)c3)nc2n(CC)c1=O` [Compound 1, 8-(1-(3-(Trifluoromethyl)benzyl)-1H-pyrazol-4-yl)-3-ethyl-1-propyl-1H-purine-2,6(3H,7H)-dione], the fibrosis (MC38 tumor model) was “reduces fibrosis”, the “effect on mouse body weight” value (CT26 tumor; CT26 model) was “no significant effect” and the “maximal CT26 tumor growth inhibition (TGI)” value (CT26 tumor; Compound 1 3 mg/kg BID, RMP1-14 5 mg/kg Q2D, alone or combined) was 47.5%. The “effect on mouse body weight” value (B16F10 tumor; B16F10 model) was “no effect”, the “maximal B16F10 tumor growth inhibition (TGI)” value (B16F10 tumor; Compound 1 1 mg/kg BID, RMP1-14 10 mg/kg Q3D, alone or combined) was 48.7% and the “increase of the amount of dendritic cells (DCs)” value ([1]; Compound 1 3 mg/kg BID i.p.) was 34%. For the same molecule, the “reduction of the amount of myeloid-derived suppressor cells (MDSCs)” value ([1]; Compound 1 3 mg/kg BID i.p.) was 41%, the “reduction of the amount of regulatory T cells (Tregs)” value ([1]; Compound 1 3 mg/kg BID i.p.) was 28% and the “increase of the amount of CD8+ T cells” value ([1]; Compound 1 3 mg/kg BID, RMP1-14 10 mg/kg Q3D, alone or combined, i.p.) was 58%. The “increase of the amount of CD4+ T cells” value ([1]; Compound 1 3 mg/kg BID, RMP1-14 10 mg/kg Q3D, i.p.) was 84%.
